Results taken from patent publication US20220218689A1, “T[…] COMPOSITIONS AND METHODS FOR USING THE SAME” (Saniona A/S, priority 2018, published 2022).

How the values were obtained:
[1] = In vitro skin flux study (Franz cell transdermal flux test); assay type: in vitro ADME, human; conditions: free base; conclusion from the in vitro skin flux study
Description: Human cadaver skin was used and epidermal layers (stratum corneum and epidermis) were separated from the full-thickness skin as skin membrane. Samples were die-cut with an arch punch to a final diameter of about 2.0 cm^2. The release liner was removed and the system was placed on top of the epidermis/stratum corneum with the drug adhesive layer facing the stratum corneum. Gentle pressure was applied to effect good contact between the adhesive layer and stratum corneum. The donor and receptor sides of the Franz cell were clamped together and the receptor solution containing a phosphate buffer at pH 6.5 was added to the Franz cell. The cells were kept at 33° C. for the duration of the experiment. Samples of the receptor solution were taken at regular intervals and the active agent concentration was measured by HPLC. The removed receptor solution was replaced with fresh solution to maintain the sink conditions. The flux was calculated from the slope of cumulative amounts of the drug in the receiver compartment versus time plot.
Transdermal delivery devices containing various formulations of (1 R,2 R,3 S,5 S)-3-(3,4-dichlorophenyl)-2-(methoxymethyl)-8-azabicyclo[3.2.1]octane (i.e., NS2359) are summarized in Table 1. An in vitro skin flux study was performed as described above with transdermal delivery devices having the formulations listed in Table 1. […]

[2] = Astrup et al., 2008, Lancet 372: 1906-13; cited from earlier work

| SMILES | Transdermal deliverability [1] | Sagittal diameter [2] | Waist circumference [2] |
| --- | --- | --- | --- |
| COC[C@@H]1[C@@H](c2ccc(Cl)c(Cl)c2)C[C@@H]2CC[C@H]1N2 [NS2359, (1 R,2 R,3 S,5 S)-3-(3,4-dichlorophenyl)-2-(methoxymethyl)-8-azabicyclo[3.2.1]octane] | can be delivered transdermally |  |  |
| CCOC[C@@H]1[C@@H](c2ccc(Cl)c(Cl)c2)C[C@@H]2CC[C@H]1N2C [Tesofensine, (1 R,2 R,3 S,5 S)-3-(3,4-dichlorophenyl)-2-(ethoxymethyl)-8-methyl-8-azabicyclo[3.2.1]octane] |  | significantly decreases | significantly decreases |
